“And” between values parts separate entries of the source, which are not always exact repeats. Equal values may be shown once. Where a name gives a salt, the structure may show the parent alone.
System: HVA release in the rat prefrontal cortex
Assay: Microdialysis: HVA release in prefrontal cortex after I.P. administration
Type: in vivo
Conditions: for HVA release (% of basal levels) measured in dialysates: individual animals, hydrochloride, 3 mg/kg; for HVA release (% of basal levels) measured in dialysates, MEAN / HVA (% of respective basal) MEAN: n = 8; for HVA (% of respective basal) MEAN: SON-117 group 0.1 mg/kg I.P.
Description: The aim of the study was to evaluate, using microdialysis, the effects of an intraperitoneal (I.P.) administration in rats of three different doses of SON-117 on dopamine and its metabolites, serotonin and its metabolite (5-HIAA), and norepinephrine levels in prefrontal cortex.
Thirty-two adult male Wistar rats were used for the whole study (4 groups of eight animals planned for the study, Table 1).
Surgery was performed on rats weighing about 300 g at the beginning of the experiments. Rats were anaesthetized with Ketamine (50 mg/kg) & Xylazine (15 mg/kg) by intramuscular administration. The animals were placed in a stereotaxic apparatus in the flat-skull position at a constant setting of −3.3 mm between ear bars and the incisor bar. The animals were treated with a local anesthesic (xylocaine 1%, Astra Zeneca) and an analgesic (Temgesic, from Schering Plough, 0.05 mg/kg, s.c.). A rostrocaudal midline incision was made with a lancet to expose the dorsal skull surface. The “stereotaxic zero” was defined by the Bregma in accordance with Paxinos and Watson's atlas (1986). A hole was drilled in the skull with a drill and the meninges were pierced with a sterile needle to implant a CMA12 guide cannula which later received the dialysis probe.
Coordinates used for implanting guide cannula in prefrontal cortex from Bregma were anteroposterior 3.7 mm, mediolateral 0.8 mm, and dorsoventral −2 mm (top of the probe was at −5 mm). The guide cannula was fixed to the skull with two stainless steel screws (1.88 mm outside diameter) anchored. An application of dental cement was added. A plastic collar allowed each animal to be tethered to a Swivel assembly of the CMA 120 awake animal system. Following surgery, rats were kept in individual cages and allowed to recover for a minimum of 3-5 days before the experimentation. The rats were handled and put in plastic bowl for 10 min at least every day to habituate the animals to their new environment for the dialysis. An I.P. administration with saline was also performed every day.
Dialysis probes (CMA12/3 mm, membrane, 20 kD cut-off, Carnegie Medicine, Stockholm, Sweden), were carefully washed before inserting into the guide cannula. The wash was performed with the artificial cerebrospinal fluid (aCSF) medium (NaCl 147 mM, KCl 2.7 mM, CaCl2 1.2 mM, MgCl2 0.85 mM) at room temperature. The dialysis system was then equilibrated at 20° C. at a perfusion rate of 1 μl/min with a Carnegie pump (CMA100). All catheters (FEP tubing, internal volume of 1.2 μl/10 cm, and tubing adaptors) used for microdialysis were treated in the same conditions.
The probes duly prepared were inserted into the guide cannula and the CMA120 Swivel assembly secured to the animal using a plastic collar. Flow through the dialysis probe with aCSF was maintained at a rate of 1 μl/min during the whole experimentation. The first four fractions (corresponding to 2 hours) were discarded to avoid the effects of parenchymal disturbance and to ensure that an approximate steady-state level was reached. Fractions were then collected over a period of 8.5 h during which time the animals remained quiet. The dialysates were automatically collected with an autosampler (microfraction collector CMA 140, Carnegie Medicin) and stored at −80° C. until analysis. […] Perfusion was then maintained for 7 hours with aCSF. The dialysates (30 μl) were collected into 300 μl vials, transferred into dry ice and then kept frozen (−80° C.) until analysis. Frozen samples were shipped to a partner for analysis. At the end of the microdialysis study, a PBS with colored ink was perfused through the probe in order to visualize the dialyzed area.
Catecholamine assay: Concentrations of dopamine, DOPAC, HVA, 5-HIAA, 5-HT, and norepinephrin were determined for each sample by HPLC coupled with electrochemical detection.

[1] = SON-117 3 mg/kg IP, T1 h 30-T2 h
[2] = SON-117 3 mg/kg IP, T1 h-T1 h 30
[3] = SON-117 3 mg/kg IP, T2 h 30-T3 h
[4] = SON-117 3 mg/kg IP, T2 h-T2 h 30
[5] = SON-117 3 mg/kg IP, T3 h 30-T4 h
[6] = SON-117 3 mg/kg IP, T3 h-T3 h 30
[7] = SON-117 3 mg/kg IP, T4 h 30-T5 h
[8] = SON-117 3 mg/kg IP, T4 h-T4 h 30
[9] = SON-117 3 mg/kg IP, T5 h 30-T6 h
[10] = SON-117 3 mg/kg IP, T5 h-T5 h 30
[11] = SON-117 3 mg/kg IP, T6 h 30-T7 h
[12] = SON-117 3 mg/kg IP, T6 h-T6 h 30

## Cc1nnc(-c2cc3c(OC[C@@H](O)CN4CCC(c5ccc(Cl)c(Cl)c5)CC4)cccc3o2)o1 [SON-117, (S)-1-(4-(3,4-dichlorophenyl)piperidino)-3-(2-(5-methyl-1,3,4-oxadiazol-2-yl)benzo(b)furan-4-yloxy)-2-propanol hydrochloride]
SON-117 3 mg/kg IP, T30-T1 h
  HVA release (% of basal levels) measured in dialysates: 87.52 % of basal levels and 80.65 % of basal levels and 76.40 % of basal levels and 105.83 % of basal levels and 105.61 % of basal levels and 95.14 % of basal levels and 127.36 % of basal levels and 107.87 % of basal levels
[1]
  HVA release (% of basal levels) measured in dialysates, MEAN: 106.02 % of basal levels
  HVA release (% of basal levels) measured in dialysates: 84.71 % of basal levels and 105.56 % of basal levels and 94.73 % of basal levels and 137.50 % of basal levels and 83.65 % of basal levels and 91.30 % of basal levels and 115.23 % of basal levels and 135.51 % of basal levels
[2]
  HVA release (% of basal levels) measured in dialysates, MEAN: 103.62 % of basal levels
  HVA release (% of basal levels) measured in dialysates: 91.12 % of basal levels and 84.36 % of basal levels and 104.08 % of basal levels and 126.08 % of basal levels and 106.58 % of basal levels and 89.86 % of basal levels and 137.31 % of basal levels and 89.55 % of basal levels
[3]
  HVA release (% of basal levels) measured in dialysates, MEAN: 102.12 % of basal levels
  HVA release (% of basal levels) measured in dialysates: 105.21 % of basal levels and 84.02 % of basal levels and 95.14 % of basal levels and 119.75 % of basal levels and 76.92 % of basal levels and 96.18 % of basal levels and 146.40 % of basal levels and 93.34 % of basal levels
[4]
  HVA release (% of basal levels) measured in dialysates, MEAN: 98.10 % of basal levels
  HVA release (% of basal levels) measured in dialysates: 100.40 % of basal levels and 90.71 % of basal levels and 80.00 % of basal levels and 109.73 % of basal levels and 85.44 % of basal levels and 89.46 % of basal levels and 133.10 % of basal levels and 95.93 % of basal levels
[5]
  HVA release (% of basal levels) measured in dialysates, MEAN: 98.25 % of basal levels
  HVA release (% of basal levels) measured in dialysates: 101.22 % of basal levels and 90.35 % of basal levels and 83.39 % of basal levels and 123.68 % of basal levels and 80.06 % of basal levels and 94.85 % of basal levels and 114.56 % of basal levels and 97.90 % of basal levels
[6]
  HVA release (% of basal levels) measured in dialysates, MEAN: 105.01 % of basal levels
  HVA release (% of basal levels) measured in dialysates: 99.13 % of basal levels and 88.16 % of basal levels and 98.47 % of basal levels and 148.68 % of basal levels and 75.12 % of basal levels and 89.56 % of basal levels and 118.49 % of basal levels and 122.51 % of basal levels
[7]
  HVA release (% of basal levels) measured in dialysates, MEAN: 92.26 % of basal levels
  HVA release (% of basal levels) measured in dialysates: 94.88 % of basal levels and 58.87 % of basal levels and 92.33 % of basal levels and 106.33 % of basal levels and 75.16 % of basal levels and 112.83 % of basal levels and 123.56 % of basal levels and 74.10 % of basal levels
[8]
  HVA release (% of basal levels) measured in dialysates, MEAN: 99.19 % of basal levels
  HVA release (% of basal levels) measured in dialysates: 97.33 % of basal levels and 77.20 % of basal levels and 84.63 % of basal levels and 137.16 % of basal levels and 71.70 % of basal levels and 91.93 % of basal levels and 127.61 % of basal levels and 105.99 % of basal levels
[9]
  HVA release (% of basal levels) measured in dialysates, MEAN: 87.32 % of basal levels
  HVA release (% of basal levels) measured in dialysates: 93.31 % of basal levels and 31.10 % of basal levels and 89.25 % of basal levels and 99.64 % of basal levels and 66.49 % of basal levels and 109.12 % of basal levels and 117.65 % of basal levels and 101.69 % of basal levels
[10]
  HVA release (% of basal levels) measured in dialysates, MEAN: 101.76 % of basal levels
  HVA release (% of basal levels) measured in dialysates: 93.67 % of basal levels and 56.56 % of basal levels and 102.66 % of basal levels and 106.92 % of basal levels and 69.24 % of basal levels and 112.81 % of basal levels and 133.42 % of basal levels and 138.83 % of basal levels
[11]
  HVA release (% of basal levels) measured in dialysates, MEAN: 96.24 % of basal levels
  HVA release (% of basal levels) measured in dialysates: 84.70 % of basal levels and 71.14 % of basal levels and 87.80 % of basal levels and 117.29 % of basal levels and 74.11 % of basal levels
[12]
  HVA release (% of basal levels) measured in dialysates, MEAN: 88.31 % of basal levels
  HVA release (% of basal levels) measured in dialysates: 71.80 % of basal levels and 62.19 % of basal levels and 96.42 % of basal levels and 114.78 % of basal levels and 75.15 % of basal levels and 95.54 % of basal levels and 102.27 % of basal levels
SON-117 3 mg/kg IP, T-30 min-T0 (pre-administration)
  HVA release (% of basal levels) measured in dialysates, MEAN: 97.66 % of basal levels
SON-117 3 mg/kg IP, T-1 h 30-T-1 h (pre-administration)
  HVA release (% of basal levels) measured in dialysates, MEAN: 99.26 % of basal levels
SON-117 3 mg/kg IP, T-1 h-T-30 min (pre-administration)
  HVA release (% of basal levels) measured in dialysates, MEAN: 103.08 % of basal levels
SON-117 3 mg/kg IP, at 3.5 h
  HVA concentration in prefrontal cortex, significant slight increase: 114%
SON-117 at the three doses tested, in function of time
  HVA, difference to the citalopram group (two-way ANOVA): no significant differences
T0-T30 min
  HVA (% of respective basal) MEAN: 101.53 % of respective basal
T30-T1 h
  HVA (% of respective basal) MEAN: 118.07 % of respective basal
T1 h 30-T2 h
  HVA (% of respective basal) MEAN: 112.1 % of respective basal
T1 h-T1 h 30
  HVA (% of respective basal) MEAN: 139.45 % of respective basal
T2 h 30-T3 h
  HVA (% of respective basal) MEAN: 111.13 % of respective basal
T2 h-T2 h 30
  HVA (% of respective basal) MEAN: 107.76 % of respective basal
T3 h 30-T4 h
  HVA (% of respective basal) MEAN: 113.38 % of respective basal
T3 h-T3 h 30
  HVA (% of respective basal) MEAN: 106.61 % of respective basal
T4 h 30-T5 h
  HVA (% of respective basal) MEAN: 102.76 % of respective basal
T4 h-T4 h 30
  HVA (% of respective basal) MEAN: 127.17 % of respective basal
T5 h 30-T6 h
  HVA (% of respective basal) MEAN: 109.97 % of respective basal
T5 h-T5 h 30
  HVA (% of respective basal) MEAN: 112.73 % of respective basal
T6 h 30-T7 h
  HVA (% of respective basal) MEAN: 113.53 % of respective basal
T6 h-T6 h 30
  HVA (% of respective basal) MEAN: 108.85 % of respective basal
T-30 min-T0 (before administration)
  HVA (% of respective basal) MEAN: 101.64 % of respective basal
T-1 h 30-T-1 h (before administration)
  HVA (% of respective basal) MEAN: 97.88 % of respective basal
T-1 h-T-30 min (before administration)
  HVA (% of respective basal) MEAN: 100.48 % of respective basal
